Laboratory results as given in patent US4309559A, “Sulphonamides useful as pesticides” (FBC Limited, priority 1977, dated 1982).
Like-named read-outs stand apart in the source and are kept apart here.

Legend:
[1] = tested on: Ryegrass (Lolium perenne); experiment: Post-emergence foliar spray, herbicidal/growth regulant response, ryegrass; format: in vivo; details: 168 h, foliar spray 11.2 kg/ha, 7 days, 0=no effect, 100=complete kill, read-out: herbicidal or growth regulant response index
Protocol: (§1) Seeds of the plant species listed below were sown in anodised aluminium pans, 19 cm long×9.5 cm wide×5 cm deep, containing John Innes I potting compost. They were then watered and placed in a controlled environment room (22° C.; 65-85% relative humidity; 14 hours per day artificial illumination at 13,000 lux). Fourteen days after sowing, the seedlings received a foliar spray of a compound listed below, formulated as a solution in 1:1 by volume aqueous acetone. The concentration of active ingredient and volume of application were adjusted so as to be equivalent to a rate of 11.2 kg/ha in 450 liters per hectare. After seven days growth in the controlled environment room, the plants were visually assessed for any herbicidal or growth regulant response. All differences from the untreated control were scored according to an index where 0=no effect and 100=complete kill.
(§2) The product of Example 95 was tested according to the procedure of Examples 49-55.

[2] = tested on: Peas (Pisum sativum); experiment: Soil incorporation (attaclay/sand dust), growth regulatory or herbicidal effects, peas; format: in vivo; details: Lathyrus oleraceus, 504 h, soil incorporation 130 ppm, 21 days, 0=no effect, 100=complete kill/suppression, read-out: growth regulatory or herbicidal effect score
Source text: (§3) The compounds listed below were each formulated as an attaclay/sand dust and incorporated into John Innes I potting compost at a rate equivalent to 26 parts per million weight/volume of active ingredient to soil and placed in anodised aluminium pans, 19 cm long×9.5 cm wide×5.0 cm deep. This rate is approximately equivalent to a soil surface application of 11.2 kg active ingredient/hectare cultivated to a depth of 5 cm. Seeds of the species listed below were sown in the treated soil, watered and placed in a controlled environment room (22° C.; 65-85% relative humidity; 14 hours per day artificial illumination at 13,000 lux) for 21 days. The plants were then visually assessed for any growth regulatory or herbicidal effects. All differences from an untreated control were scored on a scale from 0-100, where 0 signifies no effect and 100 signifies complete kill.
(§4) The compounds listed below were tested according to the procedure of Examples 56-60 but at 130 parts per million weight/volume of active ingredient to soil. This rate is approximately equivalent to a soil surface application of 56 kg active ingredient per hectare cultivated to a depth of 5 cm.
(§5) The product of Example 95 was tested according to the procedure of Examples 56-60 but at 130 and 26 parts per million weight/volume. The results were as follows:
(§6) N-(2-oxopropyl)-2'-chloro-6'-methyl-methanesulphonanilide, formulated as an attaclay/sand dust, was incorporated in John Innes I potting compost at a rate equivalent to 130 parts per million weight/volume of active ingredient to soil and placed in anodised aluminium pans, 19 cm long×9.5 cm wide×5.0 cm deep. These rates are approximately equivalent to a soil surface application of 56 kg active ingredient per hectare cultivated to a depth of 5 cm. Seeds of Peas, Mustard, Linseed, Maize, Oats and Ryegrass were sown in the treated soil, watered and placed in a controlled environment room (22° C.; 65-85% relative humidity; 14 hours artificial illumination at 13000 lux) for 21 days.
(§7) The plants were then visually assessed for any growth regulatory or herbicidal effects. All differences from an untreated control were scored on a scale from 0-100, where 0 signifies no effect and 100 signifies complete suppression.

[3] = tested on: Linseed (Linum usitatissimum); experiment: Soil incorporation (attaclay/sand dust), growth regulatory or herbicidal effects, linseed; format: in vivo; details: 504 h, soil incorporation 130 ppm, 21 days, 0=no effect, 100=complete kill/suppression, read-out: growth regulatory or herbicidal effect score
Source text: as §3, §4, §5, §6, §7

[4] = tested on: Sugarbeet (Beta vulgaris); experiment: Post-emergence foliar spray, herbicidal/growth regulant response, sugarbeet; format: in vivo; details: 168 h, foliar spray 11.2 kg/ha, 7 days, 0=no effect, 100=complete kill, read-out: herbicidal or growth regulant response index
Protocol: as §1, §2

[5] = tested on: Ryegrass (Lolium perenne); experiment: Soil incorporation (attaclay/sand dust), growth regulatory or herbicidal effects, ryegrass; format: in vivo; details: 504 h, soil incorporation 130 ppm, 21 days, 0=no effect, 100=complete kill/suppression, read-out: growth regulatory or herbicidal effect score
Source text: as §3, §4, §5, §6, §7

[6] = tested on: Linseed (Linum usitatissimum); experiment: Post-emergence foliar spray, herbicidal/growth regulant response, linseed; format: in vivo; details: 168 h, foliar spray 11.2 kg/ha, 7 days, 0=no effect, 100=complete kill, read-out: herbicidal or growth regulant response index
Protocol: as §1, §2

[7] = tested on: Peas (Pisum sativum); experiment: Post-emergence foliar spray, herbicidal/growth regulant response, peas; format: in vivo; details: Lathyrus oleraceus, 168 h, foliar spray 11.2 kg/ha, 7 days, 0=no effect, 100=complete kill, read-out: herbicidal or growth regulant response index
Protocol: as §1, §2

[8] = tested on: Oat (Avena sativa); experiment: Post-emergence foliar spray, herbicidal/growth regulant response, oat; format: in vivo; details: 168 h, foliar spray 11.2 kg/ha, 7 days, 0=no effect, 100=complete kill, read-out: herbicidal or growth regulant response index
Protocol: as §1, §2

[9] = tested on: Maize (Zea mays); experiment: Soil incorporation (attaclay/sand dust), growth regulatory or herbicidal effects, maize; format: in vivo; details: 504 h, soil incorporation 130 ppm, 21 days, 0=no effect, 100=complete kill/suppression, read-out: growth regulatory or herbicidal effect score
Source text: as §3, §4, §5, §6, §7

[10] = tested on: Oats (Avena sativa); experiment: Soil incorporation (attaclay/sand dust), growth regulatory or herbicidal effects, oats; format: in vivo; details: 504 h, soil incorporation 130 ppm, 21 days, 0=no effect, 100=complete kill/suppression, read-out: growth regulatory or herbicidal effect score
Source text: as §3, §4, §5, §6, §7

[11] = tested on: Mustard (Sinapis alba); experiment: Post-emergence foliar spray, herbicidal/growth regulant response, mustard; format: in vivo; details: 168 h, foliar spray 11.2 kg/ha, 7 days, 0=no effect, 100=complete kill, read-out: herbicidal or growth regulant response index
Protocol: as §1, §2

[12] = tested on: Mustard (Sinapis alba); experiment: Soil incorporation (attaclay/sand dust), growth regulatory or herbicidal effects, mustard; format: in vivo; details: 504 h, soil incorporation 130 ppm, 21 days, 0=no effect, 100=complete kill/suppression, read-out: growth regulatory or herbicidal effect score
Source text: as §3, §4, §5, §6, §7

[13] = tested on: Pythium ultimum; experiment: Fungal growth on the surface of soil infected with damping-off disease organism; format: in vivo; details: 6 days, 25° C., 0-8 scale
Protocol: (§8) A one week old maize meal/sand culture of the damping-off disease organism Pythium ultimum was thoroughly mixed by hand with clean sterile John Innes No. 1 potting compost in the ratio of 3 kg culture to 12 liters of soil. The infected soil was then left for approximately 18 hours before use. Each of the compounds listed below was ground together with a wetting agent, Tween 20 (1% of final volume), until a solution or fine suspension was produced which was then diluted with distilled water to give 160 ml of solution containing 1500, 500, 150 or 50 ppm active ingredient. 15 ml aliquots of this solution were added to 75 g portions of the soil infected with Pythium ultimum which were contained in small plastic cartons, 60 mm diameter×55 mm high. Fifteen cabbage seeds, variety Flower of Spring, were placed in a circular depression in the treated infected soil, recovered, and the whole sealed with a plastic cap. The cartons were then placed in a constant temperature room at 25° C.±1° C. Four replications per treatment were made with one additional treatment where seeds were sown in soil which was chemically treated only, i.e. there was no infection. This latter treatment was included to measure the direct effect of the chemical on the germination of the seed. After six days the cartons were removed from the controlled temperature chamber and assessed for degree of fungal growth on the soil surface and percentage of seedling emergence. The results of both these assessments are expressed in a 0-8 scale as follows:
(§9) One week old maize meal/sand culture of the damping-off disease organism Pythium ultimum was thoroughly mixed by hand with clean sterile John Innes No. 1 potting compost in the ratio of 3 kg culture to 12 liters of soil. This infected soil was then left for approximately 18 hours before use. The compounds listed in the Table below were each ground with the wetting agent Tween 20 (1% of final volume), until a solution or fine suspension was produced, which was then diluted with distilled water to give 160 ml of solution containing 1500 or 500 parts per million (ppm) active ingredient. 15 ml aliquots of this solution were added to 75 g portions of the soil infected with Pythium ultimum which were contained in small plastic cartons, 60 mm diameter×55 mm high.
(§10) Fifteen cabbage seeds, variety Flower of Spring, were placed in a circular depression in the treated infected soil, recovered, and the whole sealed with a plastic cap. The cartons were then placed in a constant temperature room at 25° C.±1° C. Four replications per treatment were made, with one additional treatment where seeds were sown in soil which was chemically treated only, i.e. there was no infection. This latter treatment was included to measure the direct effect of the chemical on the germination of the seed.
(§11) After six days, the cartons were removed from the controlled temperature chamber and assessed for degree of fungal growth on the soil surface and percentage of seedling emergence. The results of both these assessments are expressed in a 0-8 scale as follows:
(§12) N-(2-oxopropyl)-3',4'-dimethyl-methanesulphonanilide was tested at a dose rate of 300 ppm in the test described in Examples 233 and 234. It gave a mycelial control score of 0 and a germination score of 3 whereas the untreated samples gave a score of 0 for both.

[14] = tested on: Pythium ultimum; experiment: Cabbage seedling emergence in soil infected with Pythium ultimum; format: in vivo, Pythium ultimum (on cabbage, variety Flower of Spring); details: 6 days, 25° C., 0-8 scale
Protocol: as §8, §9, §10, §11, §12

[15] = tested on: potato blight Phytophthora infestans; format: in vivo; details: 5 days, controls less than 5%

SMILES	pest or weed control at 11200 g/ha [1] [%]	pest or weed control at 130 µg/mL [2] [%]	pest or weed control at 130 µg/mL [3] [%]	plant injury at 11200 g/ha [4] [%]	pest or weed control at 130 µg/mL [5] [%]	pest or weed control at 11200 g/ha [6] [%]	pest or weed control at 11200 g/ha [7] [%]	plant injury at 11200 g/ha [8] [%]	plant injury at 130 µg/mL [9] [%]	plant injury at 130 µg/mL [10] [%]	pest or weed control at 11200 g/ha [11] [%]	pest or weed control at 130 µg/mL [12] [%]	Mycelial Control Score ([13]; 30 ppm)	Mycelial Control Score ([13]; 100 ppm)	Mycelial Control Score ([13]; 300 ppm)	Germination Score ([14]; 30 ppm)	Germination Score ([14]; 100 ppm)	Germination Score ([14]; 300 ppm)	% Control, potato blight ([15]; 2000 ppm) [%]	% Control, potato blight ([15]; 500 ppm) [%]
CCOC(=O)C(C)N(c1ccccc1Cl)S(C)(=O)=O (stereo not shown) [Example 25]	0	5	50	30	0	20	5	20	40	20	80	100	–	–	–	–	–	–	–	–
CCOC(=O)C(C)N(c1c(C)cccc1C)S(=O)(=O)CC (stereo not shown) [Example 26, N-(1-[ethoxycarbonyl]ethyl)-2',6'-dimethyl-ethanesulphonanilide]	40	100	100	90	100	100	5	40	100	100	100	100	0 (<20% inhibition)	0 (<20% inhibition)	0 (<20% inhibition)	3 (45-54% inhibition)	4 (55-64% inhibition)	4 (55-64% inhibition)	–	–
CCCCS(=O)(=O)N(c1c(C)cccc1C)C(C)C(=O)OCC (stereo not shown) [Example 27]	20	20	100	90	100	70	5	30	100	100	100	100	–	–	–	–	–	–	–	–
CCc1ccccc1N(C(C)C(=O)N1CCOCC1)S(C)(=O)=O (stereo not shown) [Example 41]	–	–	–	–	–	–	–	–	–	–	–	–	–	–	–	–	–	–	93	–
Cc1cccc(C)c1N(CC#N)S(C)(=O)=O [Example 46]	–	20	90	–	80	–	–	–	30	70	–	100	–	–	–	–	–	–	56	–
CCCS(=O)(=O)N(CC#N)c1ccc(Cl)c(Cl)c1 [Example 132]	–	–	–	–	–	–	–	–	–	–	–	–	–	–	–	–	–	–	76	59
